The target of data set [1] is T1, glucocorticoid receptor recombinant human protein, ligand binding domain (Homo sapiens, UniProt P04150).
T1 construct: purchased Thermo Fisher Scientific A15668
T1 sequence (P04150 524-758 limits assumed): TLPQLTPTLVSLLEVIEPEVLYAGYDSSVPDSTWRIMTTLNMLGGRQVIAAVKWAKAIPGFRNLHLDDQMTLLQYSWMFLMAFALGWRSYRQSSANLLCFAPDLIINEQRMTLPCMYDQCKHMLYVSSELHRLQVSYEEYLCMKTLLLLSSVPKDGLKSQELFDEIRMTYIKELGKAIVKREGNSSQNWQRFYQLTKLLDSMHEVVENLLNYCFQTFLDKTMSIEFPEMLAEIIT
Kind of data set: glucocorticoid receptor LBD coregulator-derived peptide array. Type of data set: biochemical. The following applies: Example 2, 0.1 mM vs solvent 2% DMSO, FIG. 6.
Protocol: EXAMPLE 1: Interactions between the glucocorticoid receptor ligand binding domain (LBD) and coregulator-derived peptides were determined using the method as described by Zalachoras et al 2009^xl. Each peptide array consisting of 11 coregulator peptides as described in Table 1 were incubated with a reaction mixture of 1 nM purified glucocorticoid receptor recombinant human protein, ligand binding domain, (Thermo Fisher Scientific, cat #A15668), ALEXA488-conjugated anti-Glutathione S-Transferase (GST) antibody and buffer F (PV4689, A-11131, and PV4547; Invitrogen). […] Incubation was performed at 20° C. on the peptide array, using one two arrays per condition. glucocorticoid receptor binding to each peptide on the array, reflected by fluorescent signal, was quantified by image analysis using R-based software (Precision Medicine Lab). […] Glucocorticoid receptor binding to each peptide on the array, reflected by fluorescent signal, was quantified by image analysis using R-based software (Precision Medicine Lab). […]
The use of glucocorticoid receptor LBD was as described in Experiment 1. […] Glucocorticoid receptor binding to each peptide on the array, reflected by fluorescent signal, was quantified by image analysis using R-based software (Precision Medicine Lab).

Data set [2] has as its system zebrafish larvae. The data set is described as follows: Zebrafish inflammation model (tail fin clip, neutrophil migration). The following applies: 4 hours, clipped 3 day old larvae, p<0.001 vs. Vehicle. The format is in vivo. The source says:
The details of this model have been described previously (Xie, Y., Meijer, […]. Modeling Inflammation in Zebrafish for the Development of Anti-inflammatory Drugs. Front. Cell Dev. Biol. 8, 620984 (2021)). In short, a zebrafish model with fluorescently labeled neutrophils is used. The tip of the tail fin of 3 day old zebrafish larvae are clipped. As a result, a local inflammatory response is initiated and evokes to leukocyte migration towards the wound. The number of attracted neutrophils is recorded and serves as parameters for inflammation. […] (Significance ***: p<0.001, as determined by Student's t-Test vs. Vehicle)

Data set [3] deals with T2, RARγ (Homo sapiens, UniProt P13631).
T2 sequence (P13631 1-454): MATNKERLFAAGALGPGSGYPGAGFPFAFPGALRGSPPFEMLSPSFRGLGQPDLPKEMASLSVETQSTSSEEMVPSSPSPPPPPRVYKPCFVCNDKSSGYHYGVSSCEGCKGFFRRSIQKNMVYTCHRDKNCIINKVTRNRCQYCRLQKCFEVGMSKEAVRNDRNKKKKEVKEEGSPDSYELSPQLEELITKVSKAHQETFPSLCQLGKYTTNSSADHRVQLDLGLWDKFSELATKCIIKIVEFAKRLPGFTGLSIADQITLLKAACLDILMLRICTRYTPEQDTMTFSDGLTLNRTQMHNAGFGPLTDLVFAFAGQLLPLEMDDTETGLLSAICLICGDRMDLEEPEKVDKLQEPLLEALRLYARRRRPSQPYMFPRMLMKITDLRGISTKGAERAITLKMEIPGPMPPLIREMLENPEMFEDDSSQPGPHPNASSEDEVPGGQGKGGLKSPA
The conditions noted are these: cited from earlier work.

The conditions of data set [4]: cited from earlier work.
For data set [5], the system named is RM-1 cells. The conditions noted are these: cited from earlier work.
For data set [6] the following is noted: cited from earlier work. This is another data set of the same source.
The conditions of data set [7]: cited from earlier work. The source holds these as a separate data set.
The target in data set [8] is T3, RARβ (Homo sapiens, UniProt P10826).
T3 sequence (P10826 1-455): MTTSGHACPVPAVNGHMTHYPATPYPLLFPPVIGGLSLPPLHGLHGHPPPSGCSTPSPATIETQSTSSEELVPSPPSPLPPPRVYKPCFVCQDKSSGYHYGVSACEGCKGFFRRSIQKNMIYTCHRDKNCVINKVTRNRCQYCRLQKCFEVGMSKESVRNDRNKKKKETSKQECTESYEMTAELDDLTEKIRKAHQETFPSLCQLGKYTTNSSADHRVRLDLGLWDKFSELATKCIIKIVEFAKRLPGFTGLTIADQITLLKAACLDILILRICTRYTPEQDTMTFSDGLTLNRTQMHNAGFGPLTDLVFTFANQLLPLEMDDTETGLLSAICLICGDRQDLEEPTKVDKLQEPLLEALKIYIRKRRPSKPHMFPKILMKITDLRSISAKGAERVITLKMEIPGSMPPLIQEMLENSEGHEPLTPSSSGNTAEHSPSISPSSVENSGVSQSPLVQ
The following applies: cited from earlier work.

The conditions of data set [9]: cited from earlier work. This is another data set of the same source.
Data set [10] has as its target T4, glucocorticoid receptor (Homo sapiens, UniProt P04150).
T4 sequence (P04150 1-777): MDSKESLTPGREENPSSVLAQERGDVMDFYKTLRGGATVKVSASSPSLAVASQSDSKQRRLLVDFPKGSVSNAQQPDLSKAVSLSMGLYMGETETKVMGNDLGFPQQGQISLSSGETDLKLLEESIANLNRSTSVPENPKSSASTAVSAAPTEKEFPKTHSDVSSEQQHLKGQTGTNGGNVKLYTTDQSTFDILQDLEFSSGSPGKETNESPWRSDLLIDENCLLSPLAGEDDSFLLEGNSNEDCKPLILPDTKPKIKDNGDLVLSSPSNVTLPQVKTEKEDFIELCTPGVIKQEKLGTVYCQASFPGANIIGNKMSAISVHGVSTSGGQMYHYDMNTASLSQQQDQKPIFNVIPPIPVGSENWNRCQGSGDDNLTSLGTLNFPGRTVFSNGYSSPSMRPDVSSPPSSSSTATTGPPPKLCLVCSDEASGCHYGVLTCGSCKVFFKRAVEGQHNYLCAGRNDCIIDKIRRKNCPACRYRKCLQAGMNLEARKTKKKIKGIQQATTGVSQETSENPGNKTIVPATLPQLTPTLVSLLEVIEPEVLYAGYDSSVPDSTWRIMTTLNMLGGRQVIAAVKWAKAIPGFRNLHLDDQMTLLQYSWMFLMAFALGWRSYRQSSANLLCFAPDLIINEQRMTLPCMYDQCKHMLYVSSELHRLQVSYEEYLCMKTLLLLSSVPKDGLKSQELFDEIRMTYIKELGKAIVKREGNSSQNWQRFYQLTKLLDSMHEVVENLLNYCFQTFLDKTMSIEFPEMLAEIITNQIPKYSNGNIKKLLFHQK
The conditions noted are these: cited from earlier work.

≈ marks a conversion by molar mass, not a printed value.

As for `CC1=C(/C=C/C(C)=C/C=C/C(C)=C/C(=O)O)C(C)(C)CCC1` [ATRA, all-trans retinoic acid], the “glucocorticoid receptor-modulating effect (binding profile)” value in data set [1] is reported as “does not display any glucocorticoid receptor-modulating effect”.
In the case of `COc1ccc(-c2ccc3cc(C(=O)O)ccc3c2)cc1C12CC3CC(CC(C3)C1)C2` [Adapalene, 6-[3-(1-adamantyl)-4-methoxyphenyl]naphthalene-2-carboxylic acid], in [2] (1 μM), the “anti-inflammatory action (number of attracted neutrophils)” value is recorded as “significant anti-inflammatory action”. Moreover, the “affinity for RARγ” value in data set [3] is recorded as “high affinity”. Further, the “degradation in acidic condition” value in [4] (0.3 M HCl solution, 10 min of boiling) is on record as 28%. Besides, the “stability in alkaline condition” value in data set [4] (2 M NaOH solution, boiled for 2 h) is given as “stable”. Besides, the “degradation in oxidative conditions” value in data set [4] (80° C. for 10 min with 30% hydrogen peroxide solution) is given as 30%. In addition, the “degradation on exposure to UV light” value in data set [4] (254 and 366 nm, 12 h) is recorded as 25%. Further, in data set [5] (dose-dependent), the “migration ability of RM-1 cells (wound-healing assay)” value is recorded as “significantly suppressed”. Moreover, the “invasiveness of RM-1 cells” value in [5] (high doses) was “decrease the invasiveness”. Moreover, in data set [6] (25° C.), the “solubility in dimethyl sulfoxide” value is more than 10000 µg/mL, the solubility in dimethylformamide was 5000 µg/mL (≈ 12.1 mM), the solubility in ethanol is less than 1000 µg/mL and the solubility in tetrahydrofuran is 5000 µg/mL (≈ 12.1 mM). Also, the solubility in water result in data set [6] is “poor solubility”. For the same compound, in data set [7], the pKa is recorded as 4.23, the “pKa (strongest acidic)” value is recorded as 3.99 and the “pKa (strongest basic)” value is listed as −4.8. In addition, the “affinity for RARβ” value in data set [8] was “high affinity”.
For the compound `C[C@@H]1C[C@H]2[C@@H]3C[C@H](F)C4=CC(=O)C=C[C@]4(C)[C@@]3(F)[C@@H](O)C[C@]2(C)[C@@]1(OC(=O)C1C(C)(C)C1(C)C)C(=O)OCC#N` [GW870086], the “clinical efficacy in atopic dermatitis” value in data set [9] (atopic dermatitis patients) is “did not achieve significant clinical efficacy”. The skin atrophy entry in [9] (healthy adults) is listed as “does not include skin atrophy”.
In the case of `C[C@H](NC(=O)[C@H]1CCCO1)[C@H](Oc1ccc(C(=O)O[C@H]2CCCN(C(=O)[C@H]3COC(=O)C3)C2)cc1)c1ccc(C2CC2)cc1` [LEO 134310], in data set [10], the potency on transactivation result is “lower potency” and the potency on transrepression entry is “high potency”.
For `C[C@H]1C[C@H]2[C@@H]3CCC4=CC(=O)C=C[C@]4(C)[C@@]3(Cl)[C@@H](O)C[C@]2(C)[C@@]1(O)C(=O)CO` [beclomethasone], in data set [2] (25 μM), the “anti-inflammatory action (number of attracted neutrophils)” value was “significant anti-inflammatory action”.

Source of the values: US20240074997A1 (priority 2022, published 2024).
